# Laboratory results as given in ChEMBL document CHEMBL1147043, “Comparative metabolism of radiolabeled muraglitazar in animals and humans by quantitative and qualitative metabolite profiling” (Drug Metab Dispos, 2007).
# How the values were obtained:
# [1] = Biodistribution in orally dosed Beagle dog feces assessed as 9,12-dihydroxy muraglitazar level by LC/MS analysis; assay type: ADME, organism-based, Canis lupus familiaris; details: in vivo, po
# [2] = Drug concentration in cynomolgus monkey urine at 1.9 mg/kg, po after 12 hrs; assay type: ADME, organism-based, Macaca fascicularis; set-up: dose 1.9 mg/kg, route oral; details: read-out: Drug uptake
# [3] = test system: Plasma; assay: Biodistribution in orally dosed cynomolgus monkey plasma assessed as 17-dihydroxy muraglitazar level after 1 hr by LC/MS analysis; assay type: ADME, organism-based, Macaca fascicularis; details: in vivo, po
# [4] = Biodistribution in orally dosed human feces assessed as acetylimide derivative of muraglitazar level by LC/MS analysis; assay type: ADME, organism-based; details: in vivo, po
# [5] = test system: Hepatocyte; assay: Metabolic stability in Sprague-Dawley rat hepatocytes assessed as 17-hydroxy-O-demethyl muraglitazar level by LC/MS analysis relative to control; assay type: ADME, cell-based
# [6] = test system: Hepatocyte; assay: Metabolic stability in human hepatocytes assessed as 12-hydroxy muraglitazar level by LC/MS analysis relative to control; assay type: ADME, cell-based
# [7] = Biodistribution in orally dosed human urine assessed as 8-hydroxy muraglitazar level by LC/MS analysis; assay type: ADME, organism-based; details: in vivo, po
# [8] = test system: Plasma; assay: Biodistribution in orally dosed Sprague-Dawley rat plasma assessed as […] muraglitazar level after 12 hrs by LC/MS analysis; assay type: ADME, organism-based; details: in vivo, po
# [9] = Drug concentration in bile duct-cannulated cynomolgus monkey feces assessed as recovery of radioactive dose at 5 mg/kg, po after 48 hrs; assay type: ADME, organism-based, Macaca fascicularis; set-up: dose 5 mg/kg, route oral; details: in vivo
# [10] = test system: Hepatocyte; assay: Metabolic stability in human hepatocytes assessed as 17-hydroxy muraglitazar level by LC/MS analysis relative to control; assay type: ADME, cell-based
# [11] = Drug concentration in bile duct-cannulated cynomolgus monkey urine assessed as recovery of radioactive dose at 5 mg/kg, po after 48 hrs; assay type: ADME, organism-based, Macaca fascicularis; set-up: dose 5 mg/kg, route oral; details: in vivo
# [12] = test system: Plasma; assay: Biodistribution in orally dosed Sprague-Dawley rat plasma assessed as muraglitazar 12-carboxylic acid level after 12 hrs by LC/MS analysis; assay type: ADME, organism-based; details: in vivo, po
# [13] = test system: Plasma; assay: Biodistribution in orally dosed cynomolgus monkey plasma assessed as 12,17-dihydroxy muraglitazar level after 4 hrs by LC/MS analysis; assay type: ADME, organism-based, Macaca fascicularis; details: in vivo, po
# [14] = test system: Plasma; assay: Biodistribution in orally dosed Sprague-Dawley rat plasma assessed as muraglitazar glucuronide level after 12 hrs by LC/MS analysis; assay type: ADME, organism-based; details: in vivo, po
# [15] = test system: Plasma; assay: Biodistribution in orally dosed cynomolgus monkey plasma assessed as O-Dealkyl muraglitazar level after 4 hrs by LC/MS analysis; assay type: ADME, organism-based, Macaca fascicularis; details: in vivo, po
# [16] = Metabolic stability in cynomolgus monkey hepatocytes assessed as 17-hydroxy-O-demethyl muraglitazar level by LC/MS analysis relative to control; assay type: ADME, cell-based, Macaca fascicularis, Hepatocyte
# [17] = test system: Plasma; assay: Biodistribution in orally dosed Sprague-Dawley rat plasma assessed as 12-hydroxy-O-demethyl muraglitazar level after 12 hrs by LC/MS analysis; assay type: ADME, organism-based; details: in vivo, po
# [18] = Drug concentration in Beagle dog feces assessed as recovery of radioactive dose at 1.9 mg/kg, po after 168 hrs; assay type: ADME, organism-based, Canis lupus familiaris; set-up: dose 1.9 mg/kg, route oral; details: in vivo
# [19] = Biodistribution in orally dosed human feces assessed as 9-hydroxy-O-demethyl muraglitazar level by LC/MS analysis; assay type: ADME, organism-based; details: in vivo, po
# [20] = Drug concentration in bile duct-cannulated CD1 mouse bile at 1 mg/kg, po after 24 hrs; assay type: ADME, organism-based; set-up: dose 1 mg/kg, route oral; details: in vivo
# [21] = test system: Hepatocyte; assay: Metabolic stability in Sprague-Dawley rat hepatocytes assessed as O-Dealkyl muraglitazar level by LC/MS analysis relative to control; assay type: ADME, cell-based
# [22] = Biodistribution in orally dosed cynomolgus monkey urine assessed as 12-hydroxy-O-demethyl muraglitazar level by LC/MS analysis; assay type: ADME, organism-based, Macaca fascicularis; details: in vivo, po
# [23] = test system: Plasma; assay: Biodistribution in orally dosed cynomolgus monkey plasma assessed as 12-hydroxy-O-demethyl muraglitazar level after 1 hr by LC/MS analysis; assay type: ADME, organism-based, Macaca fascicularis; details: in vivo, po
# [24] = test system: Plasma; assay: Biodistribution in orally dosed human plasma assessed as muraglitazar glucuronide level after 12 hrs by LC/MS analysis; assay type: ADME, organism-based; details: in vivo, po
# [25] = Metabolic stability in CD1 mouse hepatocytes assessed as 17-hydroxy-O-demethyl muraglitazar level by LC/MS analysis relative to control; assay type: ADME, cell-based, Hepatocyte
# [26] = Metabolic stability in cynomolgus monkey hepatocytes assessed as O-Dealkyl muraglitazar level by LC/MS analysis relative to control; assay type: ADME, cell-based, Macaca fascicularis, Hepatocyte
# [27] = Biodistribution in orally dosed cynomolgus monkey feces assessed as 8,12-dihydroxy muraglitazar level by LC/MS analysis; assay type: ADME, organism-based, Macaca fascicularis; details: in vivo, po
# [28] = test system: Plasma; assay: Biodistribution in orally dosed Beagle dog plasma assessed as 17-dihydroxy muraglitazar level after 1 hr by LC/MS analysis; assay type: ADME, organism-based, Canis lupus familiaris; details: in vivo, po
# [29] = Drug concentration in Beagle dog urine at 2 mg/kg, po after 24 hrs; assay type: ADME, organism-based, Canis lupus familiaris; set-up: dose 2 mg/kg, route oral; details: read-out: Drug uptake
# [30] = test system: Plasma; assay: Biodistribution in orally dosed Beagle dog plasma assessed as O-demethyl muraglitazar glucuronide level after 4 hrs by LC/MS analysis; assay type: ADME, organism-based, Canis lupus familiaris; details: in vivo, po
# [31] = Drug concentration in bile duct-cannulated CD1 mouse urine assessed as recovery of radioactive dose at 1 mg/kg, po after 24 hrs; assay type: ADME, organism-based; set-up: dose 1 mg/kg, route oral; details: in vivo
# [32] = test system: Plasma; assay: Biodistribution in orally dosed human plasma assessed as O-demethyl muraglitazar level after 4 hrs by LC/MS analysis; assay type: ADME, organism-based; details: in vivo, po
# [33] = test system: Hepatocyte; assay: Metabolic stability in Sprague-Dawley rat hepatocytes assessed as 12-hydroxy muraglitazar level by LC/MS analysis relative to control; assay type: ADME, cell-based
# [34] = Fecal excretion rate in orally dosed Sprague-Dawley rat within 48 hrs; assay type: ADME, organism-based; details: faeces, po, read-out: Activity
# [35] = test system: Plasma; assay: Biodistribution in orally dosed Beagle dog plasma assessed as O-demethyl muraglitazar level after 12 hrs by LC/MS analysis; assay type: ADME, organism-based, Canis lupus familiaris; details: in vivo, po
# [36] = test system: Rattus norvegicus; assay: Biodistribution in orally dosed Sprague-Dawley rat urine assessed as 17-hydroxy-O-demethyl muraglitazar level by LC/MS analysis; assay type: ADME, organism-based; details: in vivo, po
# [37] = test system: Hepatocyte; assay: Metabolic stability in human hepatocytes assessed as O-demethyl muraglitazar level by LC/MS analysis relative to control; assay type: ADME, cell-based
# [38] = test system: Plasma; assay: Biodistribution in orally dosed Sprague-Dawley rat plasma assessed as 12,17-dihydroxy muraglitazar level after 12 hrs by LC/MS analysis; assay type: ADME, organism-based; details: in vivo, po
# [39] = Drug concentration in bile duct-cannulated CD1 mouse urine assessed as recovery of radioactive dose at 40 mg/kg, po after 24 hrs; assay type: ADME, organism-based; set-up: dose 40 mg/kg, route oral; details: in vivo
# [40] = Metabolic stability in CD1 mouse hepatocytes assessed as muraglitazar 12-carboxylic acid level by LC/MS analysis relative to control; assay type: ADME, cell-based, Hepatocyte
# [41] = test system: Hepatocyte; assay: Metabolic stability in Sprague-Dawley rat hepatocytes assessed as 12,17-dihydroxy muraglitazar level by LC/MS analysis relative to control; assay type: ADME, cell-based
# [42] = test system: Hepatocyte; assay: Metabolic stability in human hepatocytes assessed as 12,17-dihydroxy muraglitazar level by LC/MS analysis relative to control; assay type: ADME, cell-based
smiles,measurement,setting,value
COc1ccc(OC(=O)N(CC(=O)O)Cc2ccc(OCCc3nc(-c4ccccc4)oc3C)cc2)cc1 [MURAGLITAZAR],Drug uptake,[1],0.34%
same,dose excreted at 12 h,[2],1.7%
same,Drug uptake,[3],8%
same,Drug uptake,[4],3.21%
same,Drug uptake,[5],< 0.2%
same,Drug uptake,[6],1.9%
same,Drug uptake,[7],0.03%
same,Drug uptake,[8],< 0.05%
same,Drug uptake,[9],15%
same,Drug uptake,[10],4.4%
same,Drug uptake,[11],5%
same,Drug uptake,[12],< 0.05%
same,Drug uptake,[13],1.5%
same,Drug uptake,[14],0.05%
same,Drug uptake,[15],0.3%
same,Drug uptake,[16],11%
same,Drug uptake,[17],< 0.05%
same,Drug uptake,[18],89%
same,Drug uptake,[19],2.21%
same,Drug uptake,[20],0.375 mgequiv/ml
same,Drug uptake,[21],12%
same,Drug uptake,[22],0.26%
same,Drug uptake,[23],1.5%
same,Drug uptake,[24],2.5%
same,Drug uptake,[25],0.3%
same,Drug uptake,[26],7.6%
same,Drug uptake,[27],2.41%
same,Drug uptake,[28],< 0.05%
same,dose excreted at 24 h,[29],0.49%
same,Drug uptake,[30],3%
same,Drug uptake,[31],8.3%
same,Drug uptake,[32],0.5%
same,Drug uptake,[33],1.3%
same,dose excreted at 48 h,[34],95%
same,Drug uptake,[35],9%
same,Drug uptake,[36],0.01%
same,Drug uptake,[37],2.3%
same,Drug uptake,[38],< 0.05%
same,Drug uptake,[39],16.1%
same,Drug uptake,[40],0.8%
same,Drug uptake,[41],0.3%
same,Drug uptake,[42],0.2%
